Structures can show the parent of a compound that is named as a salt.
Experiments:
[1] = test system: Respiratory Syncytial Virus; experiment: microbe, parasite or virus in culture; type: cell-based; conditions: human respiratory syncytial virus, 168 h; protection against RSV cytopathology in HeLa cells, MTT read-out seven days after infection; pEC50 = -log of EC50 in molar units
Description: The percent protection against cytopathology caused by viruses (antiviral activity or EC50) achieved by tested compounds and their cytotoxicity (CC50) are both calculated from dose-response curves.
Automated tetrazolium-based […] assays were used for determination of EC50 and CC50 of test compounds. Flat-bottom, 96-well plastic microtiter trays were filled with 180 μl of Eagle's Basal Medium, supplemented with 5% FCS (0% for FLU) and 20 mM Hepes buffer. Subsequently, stock solutions (7.8× final test concentration) of compounds were added in 45 μl volumes to a series of triplicate wells so as to allow simultaneous evaluation of their effects on virus- and mock-infected cells. Five five-fold dilutions were made directly in the microtiter trays using a robot system. Untreated virus controls, and HeLa cell controls were included in each test. Approximately 100 TCID50 of Respiratory Syncytial Virus was added to two of the three rows in a volume of 50 μl. The same volume of medium was added to the third row to measure the cytotoxicity of the compounds at the same concentrations as those used to measure the antiviral activity. After two hours of incubation, a suspension (4×10^5 cells/ml) of HeLa cells was added to all wells in a volume of 50 μl. The cultures were incubated at 37° C. in a 5% CO2 atmosphere. Seven days after infection the cytotoxicity and the antiviral activity was examined spectrophotometrically. To each well of the microtiter tray, 25 μl of a solution of MTT (3-(4,5-dimethylthiazol-2-yl)-2,5-diphenyltetrazolium bromide) was added. The trays were further incubated at 37° C. for 2 hours, after which the medium was removed from each cup. Solubilization of the formazan crystals was achieved by adding 100 μl 2-propanol. Complete dissolution of the formazan crystals were obtained after the trays have been placed on a plate shaker for 10 min. Finally, the absorbances were read in an eight-channel computer-controlled photometer (Multiskan MCC, Flow Laboratories) at two wavelengths (540 and 690 nm). The absorbance measured at 690 nm was automatically subtracted from the absorbance at 540 nm, so as to eliminate the effects of non-specific absorption.

SMILES | melting point [°C] | EC50 [1] [nM]
Cc1cc(C)c2nc(Nc3ccc(CN)cc3)n(Cc3nc(C)ccc3O)c2c1 (as salt: salt) [Compound 9, 2-[2-(4-aminomethyl-phenylamino)-4,6-dimethyl-benzoimidazol-1-ylmethyl]-6-methyl-pyridin-3-ol] | 255 | 
CCOC(=O)CCNc1nc2c(C)cc(C)cc2n1Cc1nc(C)ccc1O (as salt: salt) [Compound 12, 3-[1-(3-hydroxy-6-methylpyridin-2-ylmethyl)-4,6-dimethyl-1H-benzoimidazol-2-ylamino]-propionic acid ethyl ester] | 180 | 
Cc1cc(C)c2nc(NCCCN3CCCCC3)n(Cc3nc(C)ccc3O)c2c1 [Compound 1, 2-[4,6-dimethyl-2-(3-piperidin-1-yl-propylamino)-benzoimidazol-1-ylmethyl]-6-methyl-pyridin-3-ol] |  | 20
Cc1cc(C)c2nc(NCC(O)CO)n(Cc3nc(C)ccc3O)c2c1 (stereo not drawn) [Compound 4, 3-[1-(3-hydroxy-6-methyl-pyridin-2-ylmethyl)-4,6-dimethyl-1H-benzoimidazol-2-ylamino]-propane-1,2-diol] |  | 39.8
Cc1cc(C)c2nc(NCCCO)n(Cc3nc(C)ccc3O)c2c1 [Compound 7, 2-[2-(3-hydroxypropylamino)-4,6-dimethyl-benzoimidazol-1-ylmethyl]-6-methyl-pyridin-3-ol] |  | 158
Cc1cc(C)c2nc(NCCC(N)=O)n(Cc3nc(C)ccc3O)c2c1 [Compound 8, 3-[1-(3-hydroxy-6-methyl-pyridin-2-ylmethyl)-4,6-dimethyl-1H-benzoimidazol-2-ylamino]-propionamide] |  | 158
Cc1cc(C)c2nc(Nc3ccc(CN)cc3)n(Cc3nc(C)ccc3O)c2c1 [Compound 9, 2-[2-(4-aminomethyl-phenylamino)-4,6-dimethyl-benzoimidazol-1-ylmethyl]-6-methyl-pyridin-3-ol] |  | 251
CCOC(=O)CCNc1nc2c(C)cc(C)cc2n1Cc1nc(C)ccc1O [Compound 12, 3-[1-(3-hydroxy-6-methylpyridin-2-ylmethyl)-4,6-dimethyl-1H-benzoimidazol-2-ylamino]-propionic acid ethyl ester] |  | 3160

Further lines, with some results ahead:

melting point [°C] | SMILES | EC50 [1] [nM]
> 260 | Cc1cc(C)c2nc(NCCCN3CCCCC3)n(Cc3nc(C)ccc3O)c2c1 (as salt: salt) [Compound 1, 2-[4,6-dimethyl-2-(3-piperidin-1-yl-propylamino)-benzoimidazol-1-ylmethyl]-6-methyl-pyridin-3-ol] | 
205 | Cc1cc(C)c2nc(NCC(O)CO)n(Cc3nc(C)ccc3O)c2c1 (stereo not drawn) (as salt: salt) [Compound 4, 3-[1-(3-hydroxy-6-methyl-pyridin-2-ylmethyl)-4,6-dimethyl-1H-benzoimidazol-2-ylamino]-propane-1,2-diol] | 
170 | Cc1cc(C)c2nc(NCCCO)n(Cc3nc(C)ccc3O)c2c1 (as salt: salt) [Compound 7, 2-[2-(3-hydroxypropylamino)-4,6-dimethyl-benzoimidazol-1-ylmethyl]-6-methyl-pyridin-3-ol] | 
229 | Cc1cc(C)c2nc(NCCC(N)=O)n(Cc3nc(C)ccc3O)c2c1 (as salt: salt) [Compound 8, 3-[1-(3-hydroxy-6-methyl-pyridin-2-ylmethyl)-4,6-dimethyl-1H-benzoimidazol-2-ylamino]-propionamide] | 

From patent publication US20090036466A1, “AMINO-BENZIMIDAZOLES DERIVATIVES AS INHIBITORS OF RESPIRATORY SYNCYTIAL VIRUS REPLICATION” (priority 2003, published 2009)
